From US6555375B1, “Methods for somatic embryo formation and plant regeneration of Beta vulgaris” (priority 2000, dated 2003)

Experiments:
Assay type in all cases: cell-based, Beta vulgaris
[1] = test system: embryogenic tissue masses of sugar beet; test: Repetitive embryogenic culture: optimization of proliferation medium; details: for Effect of media on repetitive embryogenic culture (description) / white embryos, share of tissues / white embryos or white clumps, share of tissues: pH 5.7
Protocol: These embedded tissues were manually isolated, separated and transferred into liquid medium (MS medium+BAP 0.2 mg/L). The cultures were maintained at constant agitation (100 rpm) in the dark with biweekly changes of the medium. […] Clumps of white embryogenic tissue masses were divided and transferred to fresh medium for further proliferation. […] Part of these tissues was used for the optimization of culture medium.
The optimization of proliferation medium was conducted through several stages. Each stage lasted for two weeks.

[2] = test system: friable callus of sugar beet; test: Somatic embryogenesis from friable callus; details: callus of ACH199 on MS+BAP at 1 mg/L
Protocol: (§1) For regeneration of embryos, friable callus was transferred to callus regeneration medium (MS medium supplemented with either 1 mg/L of BAP or 1 mg/L of TDZ). The cultures were incubated at 25° C. under a photoperiod of 16 hours of light of cool, white light at an intensity of 30 μmol m^−2s^−1 followed by a 8 hours of darkness. Callus began to grow vigorously, and by the end of the second week, it was possible to distinguish several callus types as well as small embryos (FIG. 1C). Since every seedling was treated as a separate line, quantitative analysis can be applied to the results of the experiments.
After having subcultured callus tissues on regeneration medium, friable callus grew quite fast, expanded vigorously and was almost totally necrotic after a month. At this moment a few white embryogenic structures at different stages of development became visible (FIG. 1D); however, only callus of ACH199 growing on MS+BAP at 1 mg/L produced such structures. The frequency of embryogenesis was very low. Seven separate embryos were found in two out of 40 independent callus lines.

[3] = test system: friable callus of sugar beet; test: Shoot/plant regeneration from friable callus
Protocol: as §1
All explants of one type from the same line (i.e. only hypocotyls) were able to produce callus, if any did. At the same time, there were only a few cases where callus formed from both cotyledons and hypocotyls of the same seedling (twice in ACH31 and four times in ACH203).

[4] = test system: sugar beet seedling tissues (hypocotyls, cotyledons); test: Callus induction from sugar beet seedling explants on MS medium with cytokinin
Protocol: Seeds from three sugar beet lines ACH199 (triploid), ACH31 (triploid) and ACH203 (diploid) were obtained from Crystal and Maribo Beet Seed, Moorehead, Minn. USA. To remove seed covers, Beta vulgaris seeds were soaked in the tap water overnight and then washed under water flow. Seeds were sterilized by sequential treatment with 70% (v/v) ethanol (1 min.), 0.1% (w/v) mercuric chloride (10 min.) and 10% (v/v) household laundry bleach (20 min.) followed by four washes with sterile distilled water. Seeds were then dried on sterile filter paper. All steps were performed in a laminar flow hood.
A series of media which included additional supplements were used for callus induction, embryo proliferation and shoot formation. Phytohormones (BAP, TDZ, NAA, IAA, 2,4-D) were added to the media before autoclaving (120° C. for 20 min.). The basal medium for callus induction and embryogenesis is MS medium comprising MS basal salts, 3% sucrose, 100 mg/L myo-inositol, 0.5 mg/L nicotinic acid, 0.5 mg/L pyridoxine-HCl, 1 mg/L thiamine-HCl and 0.8% (w/v) Difco agar. The basal medium for proliferation of repetitive embryos is MSE (MS basal salts, 100 mg/L myo-inositol, 0.5 mg/L nicotinic acid, 0.5 mg/L pyridoxine-HCl, 1 mg/L thiamine-HCl).
Petri dishes (100 mm×25 mm) containing 25 mL of medium were used for all experiments. Seeds were placed on MS medium, containing either BAP 2 mg/L or TDZ 1 mg/L; plates were sealed and placed in the dark place at 21° C. Cotyledons and hypocotyls (FIG. 1A) were excised from two-week-old seedlings, cut into several pieces, incised and placed on callus induction medium (MS medium supplemented with either 2 mg/L of BAP or 1 mg/l of TDZ). Plates were incubated in the dark at 21° C. Four weeks later, when explants were necrotic and dark brown, colonies of white friable callus appeared on the explant surface (FIG. 1B). Most of the callus formed on hypocotyls. Only a few colonies were found on cotyledons.

[5] = test system: sugar beet somatic embryos; test: Germination of primary somatic embryos on MS medium containing cytokinin
Protocol: The embryos germinated quickly when transferred to fresh medium either supplemented with phytohormones or not. […] These embedded tissues were manually isolated, separated and transferred into liquid medium (MS medium+BAP 0.2 mg/L). The cultures were maintained at constant agitation (100 rpm) in the dark with biweekly changes of the medium. The white embryogenic tissue masses expanded in two weeks and snow-white fresh outgrowths formed on the surface of older tissues (FIG. 2B). Clumps of white embryogenic tissue masses were divided and transferred to fresh medium for further proliferation. A couple of such passages was enough to generate a large number of white clumps. Part of these tissues was used for the optimization of culture medium.

[6] = IV. MSE, sucrose 6%, glycine 2 mg/L, phytohormone 0.1 mg/L
[7] = II. MSE, sucrose 6%, glutamine 2 mg/L, phytohormone 0.1 mg/L
[8] = IV. MSE, sucrose 6%, glycine 2 mg/L, phytohormone 0.05 mg/L
[9] = IV. MSE, sucrose 6%, glycine 2 mg/L, phytohormone 1 mg/L
[10] = III. MSE, sucrose 6%, BAP 0.1 mg/l, amino acid 2 mg/L
[11] = III. MSE, sucrose 6%, BAP 0.1 mg/l, amino acid 200 mg/L
[12] = I. MSE, BAP 0.2 mg/L, glutamine 2 mg/L, carbon source 6%

## O=C(O)COc1ccc(Cl)cc1Cl [2,4D, 2,4-dichlorophenoxyacetic acid]
[1]
  colour of vitrified tissues: caused bleaching of vitrified tissues
[1]; [6]
  Effect of media on repetitive embryogenic culture (description): Pale yellow tissues with white embryos; red pigmentation is repressed
[1]; presence in the medium
  effect on embryo proliferation: negative effect

## c1ccc(CNc2ncnc3nc[nH]c23)cc1 [BAP, 6-benzylaminopurine]
[2]
  frequency of embryogenesis: very low
  independent callus lines in which embryos were found: two out of 40
[2]; after a month
  separate embryos found: Seven
[3]; Cultivar ACH31, Cotyledons
  # of lines produced shoots: 0
  %B: number of lines producing callus and regenerating/total number of lines × 100: 0%
[3]; Cultivar ACH31, Hypocotyls
  %B: number of lines producing callus and regenerating/total number of lines × 100: 1%
[3]; Cultivar ACH31, Hypocotyls, regeneration medium MS + 1 mg/L BAP or TDZ
  # of lines produced shoots: 1
[3]; Cultivar ACH199, Cotyledons
  # of lines produced shoots: 1
  %B: number of lines producing callus and regenerating/total number of lines × 100: 0.5%
[3]; Cultivar ACH199, Hypocotyls
  # of lines produced shoots: 1
  %B: number of lines producing callus and regenerating/total number of lines × 100: 0.5%
[3]; Cultivar ACH203, Cotyledons
  # of lines produced shoots: 2
  %B: number of lines producing callus and regenerating/total number of lines × 100: 0.9%
[3]; Cultivar ACH203, Hypocotyls
  # of lines produced shoots: 11
  %B: number of lines producing callus and regenerating/total number of lines × 100: 5%
[4]; Cultivar ACH31, Cotyledons
  %A: number of lines producing callus/total number of lines × 100: 1%
[4]; Cultivar ACH31, Cotyledons, MS + BAP 2 mg/L or TDZ 1 mg/L
  # of lines produced callus: 3
[4]; Cultivar ACH31, Hypocotyls, MS + BAP 2 mg/L or TDZ 1 mg/L
  %A: number of lines producing callus/total number of lines × 100: 20%
[4]; Cultivar ACH31, Hypocotyls, MS + BAP 2 mg/L or TDZ 1 mg/L, dark 21° C.
  # of lines produced callus: 43
[4]; Cultivar ACH199, Cotyledons
  %A: number of lines producing callus/total number of lines × 100: 2%
[4]; Cultivar ACH199, Cotyledons, MS + BAP 2 mg/L
  # of lines produced callus: 4
[4]; Cultivar ACH199, Hypocotyls
  %A: number of lines producing callus/total number of lines × 100: 15%
[4]; Cultivar ACH199, Hypocotyls, MS + BAP 2 mg/L
  # of lines produced callus: 36
[4]; Cultivar ACH203, Cotyledons
  %A: number of lines producing callus/total number of lines × 100: 5%
[4]; Cultivar ACH203, Cotyledons, MS + BAP 2 mg/L or TDZ 1 mg/L
  # of lines produced callus: 11
[4]; Cultivar ACH203, Hypocotyls
  %A: number of lines producing callus/total number of lines × 100: 18%
[4]; Cultivar ACH203, Hypocotyls, MS + BAP 2 mg/L or TDZ 1 mg/L
  # of lines produced callus: 42
[1]; [7]
  Effect of media on repetitive embryogenic culture (description): Most tissues are red or dark yellow
  white embryos, share of tissues: 10%
[1]; IV. MSE, sucrose 6%, glycine 2 mg/L, phytohormone 0.01 mg/L
  Effect of media on repetitive embryogenic culture (description): Necrotic tissue with some white embryos; growth is stunted
[1]; [8]
  Effect of media on repetitive embryogenic culture (description): Light yellow tissues
  white embryos or white clumps, share of tissues: 25%
[1]; [6]
  Effect of media on repetitive embryogenic culture (description): Light yellow tissues
  white embryos or white clumps, share of tissues: 25%
[1]; [9]
  Effect of media on repetitive embryogenic culture (description): Vigorously growing, vitrified tissues
  white embryos, share of tissues: 10%
[5]
  phenotype of embryos transferred to MS medium containing BAP or TDZ: formed multiple shoots but also retained white embryogenic tissues

## NC(=O)CC[C@H](N)C(=O)O [Glutamine, glutamine]
[1]
  colour of vitrified tissues: caused bleaching of vitrified tissues
[1]; [10]
  Effect of media on repetitive embryogenic culture (description): Slowly growing, dark yellow tissues
[1]; [11]
  Effect of media on repetitive embryogenic culture (description): Slowly growing, dark yellow tissues

## NCC(=O)O [Glycine, glycine]
[1]; [10]
  Effect of media on repetitive embryogenic culture (description): Tissues are light yellow
  white embryos, share of tissues: 30%
[1]; [11]
  Effect of media on repetitive embryogenic culture (description): Slowly growing, mostly meristematic, vitrified tissues

## c1coc(CNc2ncnc3[nH]cnc23)c1 [Kin, kinetin]
[1]; [7]
  Effect of media on repetitive embryogenic culture (description): Slowly growing, mostly meristematic, vitrified tissues

## OC[C@@H](O)[C@@H](O)[C@H](O)[C@H](O)CO [Mannitol, mannitol]
[1]; [12]
  Effect of media on repetitive embryogenic culture (description): No growth, total necrosis

## OC[C@@H](O)[C@@H](O)[C@H](O)[C@@H](O)CO [Sorbitol, sorbitol]
[1]; [12]
  Effect of media on repetitive embryogenic culture (description): No growth, total necrosis

## OC[C@H]1O[C@@](CO)(O[C@H]2O[C@H](CO)[C@@H](O)[C@H](O)[C@H]2O)[C@@H](O)[C@@H]1O [Sucrose, sucrose]
[1]
  optimization of proliferation medium by modification of sucrose content: did not lead to any further improvement
[1]; [12]
  Effect of media on repetitive embryogenic culture (description): A lot of repetitive white embryos
[1]; V. MSE, BAP 0.1 mg/L, glycine 2 mg/L, sucrose at 3%
  Effect of media on repetitive embryogenic culture (description): Necrosis of all tissues
[1]; V. MSE, BAP 0.1 mg/L, glycine 2 mg/L, sucrose at 6%
  Effect of media on repetitive embryogenic culture (description): A lot of repetitive white embryos
[1]; V. MSE, BAP 0.1 mg/L, glycine 2 mg/L, sucrose at 8%
  Effect of media on repetitive embryogenic culture (description): Growth is inhibited
[1]; V. MSE, BAP 0.1 mg/L, glycine 2 mg/L, sucrose at 10%
  Effect of media on repetitive embryogenic culture (description): Growth is inhibited
[1]; V. MSE, BAP 0.1 mg/L, glycine 2 mg/L, sucrose at 12%
  Effect of media on repetitive embryogenic culture (description): Growth is inhibited

## C/C(=C\CNc1ncnc2[nH]cnc12)CO [Zea, zeatin]
[1]; [7]
  Effect of media on repetitive embryogenic culture (description): Slowly growing, mostly meristematic, vitrified tissues
